Measurements from paper PMC12057336 (Antimicrobial Agents and Chemotherapy, 2025).
Where two headings read alike, the source gives them in different places.

Tests used:
[1] = Tissue distribution after i.g. or i.v. linezolid in control, CCl4-induced and 5/6 Nx rats; type: in vivo, rat; conditions: for Kp at 0.5 h / Kp at 1 h / Kp at 4 h: rat
Description: These two groups were further divided into the following three subgroups (n = 4): control rats, CCl4-induced rats, and 5/6 Nx rats. […] The rats were euthanized immediately after blood sampling. The brain, heart, lungs, liver, kidneys, and small intestine were collected. The collected tissues were washed and homogenized in normal saline (three-fold volume of each sample weight) using a multi-sample tissue grinder (Tissuelyser-48L; Shanghai Jingxin Industrial Development Co. Ltd., Shanghai, China). After centrifugation of the homogenate samples at 12,000 × g for 10 min at 4°C, the supernatants were stored at −80°C.
The flow rate was 1.0 mL/min.
Then, 5 µL of the supernatant was analyzed.

OCT3 = tested on: OCT3; parameters: method as in PMID 27645247, PMID 26976869, PMID 27550354; conditions: cited from earlier work
MATE2-K = conditions: cited from earlier work
[2] = brain, iv, 25 mg/kg, i.v. 25 mg/kg linezolid, 5/6 Nx rats, read-out: Tissue/plasma concentration ratio, Brain
[3] = brain, iv, 25 mg/kg, i.v. 25 mg/kg linezolid, CCl4-induced rats, read-out: Tissue/plasma concentration ratio, Brain
[4] = brain, iv, 25 mg/kg, i.v. 25 mg/kg linezolid, control rats, read-out: Tissue/plasma concentration ratio, Brain
[5] = brain, oral, 63 mg/kg, i.g. 63 mg/kg linezolid, 5/6 Nx rats, read-out: Tissue/plasma concentration ratio, Brain
[6] = brain, oral, 63 mg/kg, i.g. 63 mg/kg linezolid, CCl4-induced rats, read-out: Tissue/plasma concentration ratio, Brain
[7] = brain, oral, 63 mg/kg, i.g. 63 mg/kg linezolid, control rats, read-out: Tissue/plasma concentration ratio, Brain
[8] = heart, iv, 25 mg/kg, i.v. 25 mg/kg linezolid, 5/6 Nx rats, read-out: Tissue/plasma concentration ratio, Heart
[9] = heart, iv, 25 mg/kg, i.v. 25 mg/kg linezolid, CCl4-induced rats, read-out: Tissue/plasma concentration ratio, Heart
[10] = heart, iv, 25 mg/kg, i.v. 25 mg/kg linezolid, control rats, read-out: Tissue/plasma concentration ratio, Heart
[11] = heart, oral, 63 mg/kg, i.g. 63 mg/kg linezolid, CCl4-induced rats, read-out: Tissue/plasma concentration ratio, Heart
[12] = heart, oral, 63 mg/kg, i.g. 63 mg/kg linezolid, control rats, read-out: Tissue/plasma concentration ratio, Heart
[13] = heart, oral, 63 mg/kg, i.g. 63 mg/kg linezolid, 5/6 Nx rats, read-out: Tissue/plasma concentration ratio, Heart
[14] = kidney, iv, 25 mg/kg, i.v. 25 mg/kg linezolid, 5/6 Nx rats, read-out: Tissue/plasma concentration ratio, Kidney
[15] = kidney, iv, 25 mg/kg, i.v. 25 mg/kg linezolid, control rats, read-out: Tissue/plasma concentration ratio, Kidney
[16] = kidney, oral, 63 mg/kg, i.g. 63 mg/kg linezolid, CCl4-induced rats, read-out: Tissue/plasma concentration ratio, Kidney
[17] = kidney, oral, 63 mg/kg, i.g. 63 mg/kg linezolid, 5/6 Nx rats, read-out: Tissue/plasma concentration ratio, Kidney
[18] = kidney, oral, 63 mg/kg, i.g. 63 mg/kg linezolid, control rats, read-out: Tissue/plasma concentration ratio, Kidney
[19] = liver (homogenate) relative to plasma, iv, 25 mg/kg, i.v. 25 mg/kg linezolid, 5/6 Nx rats, read-out: Tissue/plasma concentration ratio, Liver
[20] = liver (homogenate) relative to plasma, iv, 25 mg/kg, i.v. 25 mg/kg linezolid, control rats, read-out: Tissue/plasma concentration ratio, Liver
[21] = liver, oral, 63 mg/kg, i.g. 63 mg/kg linezolid, 5/6 Nx rats, read-out: Tissue/plasma concentration ratio, Liver
[22] = liver, oral, 63 mg/kg, i.g. 63 mg/kg linezolid, CCl4-induced rats, read-out: Tissue/plasma concentration ratio, Liver
[23] = liver, oral, 63 mg/kg, i.g. 63 mg/kg linezolid, control rats, read-out: Tissue/plasma concentration ratio, Liver
[24] = lung, iv, 25 mg/kg, i.v. 25 mg/kg linezolid, 5/6 Nx rats, read-out: Tissue/plasma concentration ratio, Lung
[25] = lung, iv, 25 mg/kg, i.v. 25 mg/kg linezolid, CCl4-induced rats, read-out: Tissue/plasma concentration ratio, Lung
[26] = lung, iv, 25 mg/kg, i.v. 25 mg/kg linezolid, control rats, read-out: Tissue/plasma concentration ratio, Lung
[27] = lung, oral, 63 mg/kg, i.g. 63 mg/kg linezolid, 5/6 Nx rats, read-out: Tissue/plasma concentration ratio, Lung
[28] = lung, oral, 63 mg/kg, i.g. 63 mg/kg linezolid, CCl4-induced rats, read-out: Tissue/plasma concentration ratio, Lung
[29] = lung, oral, 63 mg/kg, i.g. 63 mg/kg linezolid, control rats, read-out: Tissue/plasma concentration ratio, Lung
[30] = small intestine, iv, 25 mg/kg, i.v. 25 mg/kg linezolid, 5/6 Nx rats, read-out: Tissue/plasma concentration ratio, Small intestine
[31] = small intestine, iv, 25 mg/kg, i.v. 25 mg/kg linezolid, CCl4-induced rats, read-out: Tissue/plasma concentration ratio, Small intestine
[32] = small intestine, iv, 25 mg/kg, i.v. 25 mg/kg linezolid, control rats, read-out: Tissue/plasma concentration ratio, Small intestine
[33] = small intestine, oral, 63 mg/kg, i.g. 63 mg/kg linezolid, 5/6 Nx rats, read-out: Tissue/plasma concentration ratio, Small intestine
[34] = small intestine, oral, 63 mg/kg, i.g. 63 mg/kg linezolid, CCl4-induced rats, read-out: Tissue/plasma concentration ratio, Small intestine
[35] = small intestine, oral, 63 mg/kg, i.g. 63 mg/kg linezolid, control rats, read-out: Tissue/plasma concentration ratio, Small intestine

CC(=O)NC[C@H]1CN(c2ccc(N3CCOCC3)c(F)c2)C(=O)O1 [Linezolid]
Kp at 0.5 h [1, 2]: 0.12 ± 0.04 | Kp at 0.5 h [1, 3]: 0.16 ± 0.12 | Kp at 0.5 h [1, 4]: 0.11 ± 0.02 | Kp at 1 h [1, 2]: 0.15 ± 0.01 | Kp at 1 h [1, 3]: 0.12 ± 0.03 | Kp at 1 h [1, 4]: 0.12 ± 0.02 | Kp at 4 h [1, 2]: 0.13 ± 0.04 | Kp at 4 h [1, 3]: 0.08 ± 0.01 | Kp at 0.5 h [1, 5]: 0.17 ± 0.06 | Kp at 0.5 h [1, 6]: 0.1 ± 0.01 | Kp at 0.5 h [1, 7]: 0.15 ± 0.02 | Kp at 1 h [1, 5]: 0.16 ± 0.03 | Kp at 1 h [1, 6]: 0.09 ± 0.02 | Kp at 1 h [1, 7]: 0.03 ± 0.002 | Kp at 4 h [1, 5]: 0.18 ± 0.06 | Kp at 4 h [1, 6]: 0.07 ± 0.04 | Kp at 4 h [1, 7]: 0.06 ± 0.03 | Kp at 0.5 h [1, 8]: 0.85 ± 0.04 | Kp at 0.5 h [1, 9]: 0.63 ± 0.05 | Kp at 0.5 h [1, 10]: 0.5 ± 0.09 | Kp at 1 h [1, 8]: 0.91 ± 0.04 | Kp at 1 h [1, 9]: 0.67 ± 0.05 | Kp at 1 h [1, 10]: 0.4 ± 0.07 | Kp at 4 h [1, 8]: 0.75 ± 0.13 | Kp at 4 h [1, 9]: 0.67 ± 0.09 | Kp at 4 h [1, 10]: 0.13 ± 0.1 | Kp at 0.5 h [1, 11]: 0.64 ± 0.14 | Kp at 0.5 h [1, 12]: 0.68 ± 0.06 | Kp at 1 h [1, 13]: 0.88 ± 0.12 | Kp at 1 h [1, 11]: 0.54 ± 0.18 | Kp at 1 h [1, 12]: 0.24 ± 0.06 | Kp at 4 h [1, 13]: 0.96 ± 0.47 | Kp at 4 h [1, 11]: 0.61 ± 0.03 | Kp at 4 h [1, 12]: 0.47 ± 0.15 | Kp at 4 h ([1]; kidney (homogenate) relative to plasma, iv, 25 mg/kg, i.v. 25 mg/kg linezolid, 5/6 Nx rats, read-out: Tissue/plasma concentration ratio, Kidney): 1 ± 0.23 | Kp at 0.5 h [1, 14]: 0.97 ± 0.12 | Kp at 0.5 h ([1]; kidney, iv, 25 mg/kg, i.v. 25 mg/kg linezolid, CCl4-induced rats, read-out: Tissue/plasma concentration ratio, Kidney): 1.28 ± 0.56 | Kp at 0.5 h [1, 15]: 0.64 ± 0.36 | Kp at 1 h [1, 14]: 0.92 ± 0.18 | Kp at 1 h [1, 15]: 0.62 ± 0.52 | Kp at 4 h [1, 15]: 0.84 ± 0.14 | Kp at 0.5 h [1, 16]: 0.85 ± 0.16 | Kp at 1 h [1, 17]: 0.94 ± 0.18 | Kp at 1 h [1, 16]: 1.18 ± 0.22 | Kp at 1 h [1, 18]: 0.42 ± 0.06 | Kp at 4 h [1, 17]: 0.97 ± 0.25 | Kp at 4 h [1, 16]: 1.11 ± 0.17 | Kp at 4 h [1, 18]: 0.75 ± 0.15 | Kp at 0.5 h [1, 19]: 1.24 ± 0.21 | Kp at 0.5 h ([1]; liver (homogenate) relative to plasma, iv, 25 mg/kg, i.v. 25 mg/kg linezolid, CCl4-induced rats, read-out: Tissue/plasma concentration ratio, Liver): 1.32 ± 0.36 | Kp at 0.5 h [1, 20]: 1.22 ± 0.46 | Kp at 1 h [1, 19]: 1.11 ± 0.34 | Kp at 1 h [1, 20]: 0.6 ± 0.38 | Kp at 4 h ([1]; liver, iv, 25 mg/kg, i.v. 25 mg/kg linezolid, 5/6 Nx rats, read-out: Tissue/plasma concentration ratio, Liver): 1.39 ± 0.4 | Kp at 4 h ([1]; liver, iv, 25 mg/kg, i.v. 25 mg/kg linezolid, CCl4-induced rats, read-out: Tissue/plasma concentration ratio, Liver): 1.19 ± 0.85 | Kp at 4 h ([1]; liver, iv, 25 mg/kg, i.v. 25 mg/kg linezolid, control rats, read-out: Tissue/plasma concentration ratio, Liver): 1.3 ± 0.36 | Kp at 0.5 h [1, 21]: 1.25 ± 0.6 | Kp at 0.5 h [1, 22]: 1.06 ± 0.44 | Kp at 0.5 h [1, 23]: 1.64 ± 0.75 | Kp at 1 h [1, 21]: 1.37 ± 0.41 | Kp at 1 h [1, 22]: 1.19 ± 0.18 | Kp at 1 h [1, 23]: 0.78 ± 0.14 | Kp at 4 h [1, 21]: 1 ± 0.11 | Kp at 4 h [1, 22]: 0.93 ± 0.31 | Kp at 4 h [1, 23]: 1.06 ± 0.16 | Kp at 0.5 h [1, 24]: 0.87 ± 0.03 | Kp at 0.5 h [1, 25]: 0.55 ± 0.34 | Kp at 0.5 h [1, 26]: 0.42 ± 0.25 | Kp at 1 h [1, 24]: 0.91 ± 0.08 | Kp at 1 h [1, 25]: 0.66 ± 0.08 | Kp at 1 h [1, 26]: 0.25 ± 0.18 | Kp at 4 h [1, 24]: 0.74 ± 0.2 | Kp at 4 h [1, 25]: 0.85 ± 0.14 | Kp at 4 h [1, 26]: 0.45 ± 0.46 | Kp at 0.5 h [1, 27]: 0.86 ± 0.38 | Kp at 0.5 h [1, 28]: 0.68 ± 0.16 | Kp at 0.5 h [1, 29]: 0.67 ± 0.13 | Kp at 1 h [1, 27]: 0.94 ± 0.18 | Kp at 1 h [1, 28]: 0.66 ± 0.05 | Kp at 1 h [1, 29]: 0.07 ± 0.03 | Kp at 4 h [1, 27]: 0.82 ± 0.09 | Kp at 4 h [1, 28]: 0.6 ± 0.04 | Kp at 4 h [1, 29]: 0.46 ± 0.15 | Kp at 0.5 h [1, 30]: 1.19 ± 0.31 | Kp at 0.5 h [1, 31]: 0.66 ± 0.05 | Kp at 0.5 h [1, 32]: 0.42 ± 0.21 | Kp at 1 h [1, 30]: 0.77 ± 0.34 | Kp at 1 h [1, 31]: 0.69 ± 0.05 | Kp at 1 h [1, 32]: 0.21 ± 0.01 | Kp at 4 h [1, 30]: 0.73 ± 0.07 | Kp at 4 h [1, 31]: 0.71 ± 0.09 | Kp at 4 h [1, 32]: 0.47 ± 0.42 | Kp at 0.5 h [1, 33]: 2.48 ± 0.76 | Kp at 0.5 h [1, 34]: 0.93 ± 0.26 | Kp at 0.5 h [1, 35]: 0.35 ± 0.21 | Kp at 1 h [1, 33]: 1.28 ± 0.29 | Kp at 1 h [1, 34]: 0.9 ± 0.09 | Kp at 1 h [1, 35]: 0.33 ± 0.22 | Kp at 4 h [1, 33]: 0.9 ± 0.31 | Kp at 4 h [1, 34]: 1.11 ± 0.07 | Kp at 4 h [1, 35]: 0.6 ± 0.18 | accumulation in brain, heart, lung, liver, kidney, or small intestinal tissues ([1]; within 4 hours after i.g. and i.v. administration, hepatic impairment or renal failure rats): did not accumulate | inhibitor of OCT3 (OCT3): not an inhibitor | inhibitor of MATE2-K (MATE2-K): not an inhibitor
